Data as given in US7722863B2, “Use of granzyme b as an hsp70/hsp70 peptide dependent inducer of apoptosis in tumor cells” (Multimmune GmbH, priority 2002, dated 2010).

Columns and labels:
[1] = system: Hsp70 membrane-positive leukemic cell line K562; test: Annexin V-FITC apoptosis assay (flow cytometry); assay type: cell-based; conditions: granzyme B
Protocol: Exponentially growing tumor cells (day 1 after cell passage) were used for granzyme B, camptothecin treatment and as targets in cytotoxicity assays.
Annexin V-FITC staining: Briefly, cells were washed twice in Hepes buffer containing 5 mM CaCl2 and incubated with Annexin V-FITC (Roche) for 10 min at room temperature. Annexin V-FITC positively stained cells were measured on a FACSCalibur flow cytometer (Becton Dickinson, Heidelberg, Germany).
Similarly, a 1.3-fold and a 2.4-fold increase in the amount of Annexin V-FITC positively stained Colo+ cells were observed after 12 h and 24 h, respectively. […] A comparative Annexin V-FITC staining pattern of CX+ and CX− cells treated with granzyme B for 24 h, is illustrated in FIG. 3B. […] The amount of Annexin V-FITC positively stained K562 cells increased from 8.7% up to 16% (1.8-fold).

[2] = target: T1, recombinant human Hsp70-protein (Homo sapiens, UniProt P0DMV8); test: Affinity chromatography of YT cell lysate, Western blot of eluates; assay type: binding; conditions: Western blot with mAb 2C5, fraction F3
T1 construct: purchased Stressgen
Protocol: (§1) Bovine serum albumine (BSA, 1 mg/ml, Sigma-Aldrich, Steinheim, Germany), 1 mg/ml lyophylized, recombinant human Hsp70-protein (Stressgen, British Columbia, Canada) or 2 mg/mi Hsp70-peptide TKD (TKDNNLLGRFELSG (SEO ID NO:1), aa450-463, Bachem, Bubendorf, Switzerland) were incubated with equilibrated AminoLink agarose beads (Pierce, Rockford, USA) in 2 ml for 6 h, together with the reductant NaCNBH3. Binding capacity of BSA, Hsp70-protein and Hsp70-peptide TKD was greater 95%. Following removal of uncoupled material by extensive washing with Tris-buffer and quenching of non-reactive groups, cell lysates were administered to the BSA, Hsp70-protein and Hsp70-peptide TKD conjugated columns for 1 h.
(§2) After washing with 10 column volumes of 20 mM Tris buffer, bound proteins were eluted with 3 M sodium chloride in 20 mM Tris buffer, in 5 fractions. Each fraction was subjected to a 10% SDS-PAGE and blotted to PVDF membranes.
(§3) Following blocking in skim-milk (0.1%) and incubation with mAb directed against granzyme B 2C5 (IgG2a, Becton Dickinson, Heidelberg, Germany), at 4° C., for 5 h, Western blots were washed and incubated with a secondary mouse anti-IgG HRP Ab (Dianova, Hamburg, Germany), for 1 h. Proteins were detected using the ECL kit (Amersham Bioscience) for 5 sec. […]

Hsp70-peptide TKD = target: T2, Hsp70-peptide TKD (Homo sapiens, UniProt P0DMV8); test: as above; assay type: binding; conditions: Western blot with mAb 2C5, fraction F3
T2 construct: Hsp70-peptide TKD (TKDNNLLGRFELSG (SEO ID NO:1), aa450-463, Bachem, Bubendorf, Switzerland); purchased Bachem
Protocol: as §1, §2, §3

T1 sequence (P0DMV8 whole entry): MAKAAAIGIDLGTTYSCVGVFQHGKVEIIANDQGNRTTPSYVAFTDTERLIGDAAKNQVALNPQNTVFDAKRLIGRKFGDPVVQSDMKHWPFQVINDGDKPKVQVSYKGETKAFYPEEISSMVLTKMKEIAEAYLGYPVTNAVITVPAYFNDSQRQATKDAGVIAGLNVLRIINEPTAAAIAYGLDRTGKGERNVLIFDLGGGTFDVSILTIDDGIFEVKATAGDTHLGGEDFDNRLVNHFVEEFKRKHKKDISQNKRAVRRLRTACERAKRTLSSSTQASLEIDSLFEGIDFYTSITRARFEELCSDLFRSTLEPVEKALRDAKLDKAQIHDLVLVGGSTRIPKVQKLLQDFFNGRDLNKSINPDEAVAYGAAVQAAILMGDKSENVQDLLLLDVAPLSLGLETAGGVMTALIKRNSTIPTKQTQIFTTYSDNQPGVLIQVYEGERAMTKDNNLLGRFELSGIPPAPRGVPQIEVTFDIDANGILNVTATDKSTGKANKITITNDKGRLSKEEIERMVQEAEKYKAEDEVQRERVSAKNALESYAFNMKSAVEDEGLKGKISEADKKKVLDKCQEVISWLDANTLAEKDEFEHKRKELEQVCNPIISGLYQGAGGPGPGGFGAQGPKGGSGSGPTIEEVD

granzyme B in YT cell eluates from Hsp70-protein column [2]: dominant 32 kDa granzyme B protein band
granzyme B in YT cell eluates from Hsp70-peptide (TKD) column (Hsp70-peptide TKD): dominant 32 kDa granzyme B protein band
Substance: granzyme B
amount of Annexin V-FITC positively stained K562 cells ([1]; untreated 8.7%, data not shown): 16%
fold increase of Annexin V-FITC positively stained K562 cells ([1]; versus untreated): 1.8 fold
